# Reference: patent publication US6187783A, “Phenanthridinium derivatives” (Nippon Kayaku Kabushiki Kaisha, priority 1996, dated 2001)
# Like-named read-outs stand apart in the source and are kept apart here.
# How the values were obtained:
# [1] = test system: Human uterus cancer-derived cells HeLa S3; test: Growth prevention against cancer cells (72 h contact, Methylene Blue staining); assay type: cell-based; settings: HeLa S3, 72 hours contact, 37° C., read-out: 50% Inhibitory Concentration (IC50)
# Method: The compounds of the present invention were examined on the antitumor activity, and the thus obtained results are shown below.
# 1. Growth prevention against cancer cells
# Human uterus cancer-derived cells HeLa S3 were incubated at 37° C. for 24 hours in 5% CO2. A test compound was then brought into contact with the cells for 72 hours. Then, the cells were stained with 0.05% Methylene Blue. The pigment was extracted from the stained cells. The growth inhibition of the cells were determined based on absorbance at 660 nm to calculate 50% growth inhibitory concentration (IC50).
# [2] = Chemical reduction with sodium cyanoborohydride; assay type: physicochemical
# Method: (§1) In addition, when an in vitro metabolic test using liver homogenate (S9) prepared from human liver was performed with reference to the method described in Arch. […] This product coincided with the reduced product formed by the chemical reduction described above.
# (§2) 2,3-(Methylenedioxy)-7-hydroxy-8-methoxy-5,6-propano-benzo[c]phenanthridinium chloride, which is one of the compounds of the present invention, was treated with sodium cyanoborohydride in an aqueous solution at room temperature.
# The compound of the present invention (0.1 mg/mL aqueous solution, 0.1 mL) was diluted with methanol (1.0 mL). An aqueous solution of sodium cyanoborohydride (4 mg/mL, 0.02 mL) was added to the solution. The mixture was allowed to stand at room temperature. The reaction was terminated by adding 1% aqueous phosphoric acid (1 mL) thereto. The residual amount of the compound was determined by high performance liquid chromatography. As a control, 2,3-(methylenedioxy)-5-methyl-7-hydroxy-8-methoxy-benzo[c]phenanthridiniumhydrogensulfate was similarly reacted.
# [3] = test system: Mouse leukemia cells P388; test: Antitumor effect on cancer cells in vivo (P388 leukemia, survival); parameters: species or system mouse (female CDF1 mice); settings: i.v. single administration; for Survived Days: P388 in female CDF1 mice; for Effect (T/C %): ratio of survival days to median of control group
# Method: 2. Antitumor effect on cancer cells in vivo
# Mouse leukemia cells P388 was intravenously injected to female CDF1 mice of 6 weeks old in a dose of 10^5 cells/mouse. A 5% glucose aqueous solution of 2,3-(methylenedioxy)-7-hydroxy-8-methoxy-5,6-propano-benzo[c]phenanthridinium chloride (Compound No. A-4 of the present invention, (X^- =Cl^-)) was intravenously injected by single administration on the day following the tumor transportation. The antitumor effect was evaluated by comparing the ratio (T/C %) of survival days to the median of survival days in the control group (5 mice).
# [4] = In vitro metabolic test using liver homogenate (S9); assay type: in vitro ADME, human
# Method: as §1, §2
# female CDF1 mice = test: Acute toxicity by intravenous injection; assay type: in vivo, mouse (female CDF1 mice); settings: female CDF1 mice of 6 weeks old
# Method: The acute toxicity was assessed by intravenous injection of 2,3-(methylenedioxy)-7-hydroxy-8-methoxy-5,6-propano-benzo[c]phenanthridinium chloride (Compound No. A-4 of the present invention, (X^- =Cl^-)) to female CDF1 mice of 6 weeks old.
# [5] = aqueous sodium cyanoborohydride
Compound,IC50 [1] [nM],"Amount of Compound remained after Reduction [2, 5]",Survived Days ([3]; 25 mg/kg/day) [days],Effect (T/C %) ([3]; 25 mg/kg/day) [%],Survived Days ([3]; 50 mg/kg/day) [days],Effect (T/C %) ([3]; 50 mg/kg/day) [%],Survived Days ([3]; 75 mg/kg/day) [days],Effect (T/C %) ([3]; 75 mg/kg/day) [%],Survived Days ([3]; 100 mg/kg/day) [days],Effect (T/C %) ([3]; 100 mg/kg/day) [%],Production of metabolite [4],Acute toxicity (survival) (female CDF1 mice),"Production of metabolite ([4]; in vitro, liver homogenate (S9) prepared from human liver)","Disappearance on treatment with sodium cyanoborohydride ([2]; aqueous solution, room temperature)","Amount of Compound remained after Reduction ([2]; sodium cyanoborohydride, room temperature, terminated with phosphoric acid, HPLC)"
"COc1ccc2c(c1O)c1[n+](c3c4cc5c(cc4ccc23)OCO5)CCCC1 [Compound No. A-7, 2,3-(methylenedioxy)-7-hydroxy-8-methoxy-5,6-butano-benzo[c]phenanthridinium chloride]",5600,100,,,,,,,,,,,,,
"COc1ccc2c(c1O)c1[n+](c3c4cc5c(cc4ccc23)OCO5)CCC1 [Compound No. A-4, 2,3-(methylenedioxy)-7-hydroxy-8-methoxy-5,6-propano-benzo[c]phenanthridinium chloride]",170,50,14,167,21,250,> 30,> 357,> 30,> 357,no metabolite was produced,"survived even in a dose of 100 mg/kg, without showing any death",,,
"COc1ccc2c(c[n+](C)c3c4cc5c(cc4ccc23)OCO5)c1O [Control, 2,3-(methylenedioxy)-5-methyl-7-hydroxy-8-methoxy-benzo[c]phenanthridiniumhydrogensulfate, reference compound]",,,,,,,,,,,,,production of the metabolite was observed,the phenanthridinium is lost in a few minutes,0
